How the values were obtained:
[1] = test system: Porcine Parvovirus (PPV); experiment: Viral inactivation of spiked porcine valve and pericardium, PPV; assay type: cell-based; settings: 0.2% glutaraldehyde at 47 days; average for porcine valve and pericardium material
[2] = test system: Pseudorabies Virus (PrV); assay type: cell-based; settings: 0.2% glutaraldehyde at 47 days; average for porcine valve and pericardium material
[3] = test system: Amphotropic Murine Leukemia Virus (A-MuLV); experiment: Viral inactivation of spiked porcine valve and pericardium, A-MuLV; assay type: cell-based; settings: 0.2% glutaraldehyde at 47 days; average for porcine valve and pericardium material
[4] = test system: Influenza A Virus (Inf A); experiment: Viral inactivation of spiked porcine valve and pericardium, Inf A; assay type: cell-based; settings: 0.2% glutaraldehyde at 47 days; average for porcine valve and pericardium material
[5] = test system: Reovirus Type 3 (REO-3); experiment: Viral inactivation of spiked porcine valve and pericardium, REO-3; assay type: cell-based; settings: 0.2% glutaraldehyde at 47 days; average for porcine valve and pericardium material
[6] = test system: five viruses (A-MuLV, Inf A, PPV, PrV, REO-3); experiment: Viral inactivation, panel of five viruses (remaining virus); assay type: cell-based; settings: after 47 days of exposure
[7] = Calcification after subcutaneous implantation in rats (Examples 2 and 3), bovine pericardium; assay type: in vivo, Sprague-Dawley rats; settings: retrieved after 60 days of implantation, about 16 hours treatment
Protocol: In a class 100 laminar flow bench, pieces of glutaraldehyde-fixed bovine pericardium tissue (Mitroflow Inc.; Richmond, British Columbia, Canada) porcine cusp tissue (Labcor; Belo Horizonte, Brazil) and porcine wall tissue (Labcor Inc.) were transferred into sterile tubes containing 1,2-octanediol solutions (5% 1,2-octanediol (Aldrich Chemical), 40% ethanol and 55% 10 mM HEPES buffer). The tubes were transferred to a 37° C. incubator and maintained at 37° C. with gentle agitation for about 16 hours. After the treatment, the samples were transferred to solutions comprising 22% ethanol in 10 mM HEPES and stored for 14 days at 4° C. The final tissue to volume ratio for all treatments was approximately 27 ml/g. For N-methyl pyrolidinone (NMP) treatments, pieces of glutaraldehyde-fixed bovine pericardium tissue (Mitroflow Inc.), porcine cusp tissue (Labcor Inc.) and porcine wall tissue (Labcor Inc.) were transferred into sterile tubes containing NMP. The tubes were incubated at room temperature for about 16 hours with occasional manual agitation. […] Seven rats per treatment group were analyzed. […] After retrieval, the samples were analyzed for their calcium and phosphorus contents using a standard ICP methodology. […] Seven rats per treatment group were analyzed. […] After retrieval, the samples were analyzed for their calcium and phosphorus contents by ICP.

[8] = Calcification after subcutaneous implantation in rats (Example 2), porcine cusp; assay type: in vivo, Sprague-Dawley rats; settings: retrieved after 60 days of implantation, about 16 hours treatment
Protocol: (§1) In a class 100 laminar flow bench, pieces of glutaraldehyde-fixed bovine pericardium tissue (Mitroflow Inc.; Richmond, British Columbia, Canada) porcine cusp tissue (Labcor; Belo Horizonte, Brazil) and porcine wall tissue (Labcor Inc.) were transferred into sterile tubes containing 1,2-octanediol solutions (5% 1,2-octanediol (Aldrich Chemical), 40% ethanol and 55% 10 mM HEPES buffer). The tubes were transferred to a 37° C. incubator and maintained at 37° C. with gentle agitation for about 16 hours. After the treatment, the samples were transferred to solutions comprising 22% ethanol in 10 mM HEPES and stored for 14 days at 4° C. The final tissue to volume ratio for all treatments was approximately 27 ml/g. For N-methyl pyrolidinone (NMP) treatments, pieces of glutaraldehyde-fixed bovine pericardium tissue (Mitroflow Inc.), porcine cusp tissue (Labcor Inc.) and porcine wall tissue (Labcor Inc.) were transferred into sterile tubes containing NMP. The tubes were incubated at room temperature for about 16 hours with occasional manual agitation. After the treatment, the tissue samples were transferred to 22% HEPES-buffered ethanol solutions and stored for 14 days at 4° C. […] Seven rats per treatment group were analyzed. […] After retrieval, the samples were analyzed for their calcium and phosphorus contents using a standard ICP methodology.

[9] = Calcification after subcutaneous implantation in rats (Example 2), porcine wall; assay type: in vivo, Sprague-Dawley rats; settings: retrieved after 60 days of implantation, about 16 hours treatment
Protocol: as §1

Compound	Viral log reduction, PPV [1] [log]	Viral log reduction, PrV [2] [log]	Viral log reduction, A-MuLV [3] [log]	Viral log reduction, Inf A [4] [log]	Viral log reduction, REO-3 [5] [log]	viruses present on porcine valves or pericardium materials [6]	Calcuim (μg/mg tissue) [7] [μg/mg tissue]	Phosphorus (μg/mg tissue) [7] [μg/mg tissue]	Calcuim (μg/mg tissue) [8] [μg/mg tissue]	Phosphorus (μg/mg tissue) [8] [μg/mg tissue]	Calcuim (μg/mg tissue) [9] [μg/mg tissue]	Phosphorus (μg/mg tissue) [9] [μg/mg tissue]
O=CCCCC=O [Glutaraldehyde, glutaraldehyde]	5.03	5.51	4.15	3.5	5.00	No viruses were present	–	–	–	–	–	–
CN1CCCC1=O [NMP, N-methyl pyrolidinone]	–	–	–	–	–	–	8.0	3.4	14.7	7.9	111.9	55.2
